Biological target: Recombinant human JAK1 catalytic domain (Homo sapiens (Human), UniProt P23458)
Test: JAK1 kinase assay (Z'-LYTE Tyr 6 Peptide)
Format: biochemical
Conditions: JAK1 kinase assay, 0.3 uM concentration; read-out: inhibition percentage (IR %)
Procedure: JAK1/2/3 kinase assay are performed in vitro using Kit-Tyr 6 Peptide (Invitrogen, Cat. No. PV4122). TYK2 kinase assay are performed in vitro using Z′-LYTE™ Kinase Assay Kit-Tyr 3 Peptide (Invitrogen, Cat. No. PV3192). […] All compounds are initially tested at 8 different concentrations (1 μM down to 0.0003 μM) using a 1:3 serial dilution scheme.

Sequence of Recombinant human JAK1 catalytic domain (P23458 875-1153): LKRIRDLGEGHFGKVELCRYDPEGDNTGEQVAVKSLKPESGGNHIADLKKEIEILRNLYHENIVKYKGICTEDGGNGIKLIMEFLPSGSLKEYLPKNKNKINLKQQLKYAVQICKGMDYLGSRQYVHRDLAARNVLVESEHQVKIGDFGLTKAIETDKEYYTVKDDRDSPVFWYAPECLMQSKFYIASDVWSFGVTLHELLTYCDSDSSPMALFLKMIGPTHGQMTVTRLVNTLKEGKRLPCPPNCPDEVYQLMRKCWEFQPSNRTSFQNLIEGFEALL

| SMILES | inhibition at 0.3 µM |
| --- | --- |
| C[C@H](NS(=O)(=O)c1ccc(N(C)[C@@H]2CCN(c3ncnc4[nH]ccc34)C2)nc1)c1ccc(F)cc1 [Compound 256] | 50 to 100% |
| COc1ccc(S(=O)(=O)N(C)[C@@H]2CCN(c3ncnc4[nH]ccc34)C2)cc1 [Compound 13] | 20 to 50% |
| CN(c1ncc(Br)cn1)[C@@H]1CCN(c2ncnc3[nH]ccc23)C1 [Compound 94] | 50 to 100% |
| CN(c1ncc(Br)cc1C#N)[C@@H]1CCN(c2ncnc3[nH]ccc23)C1 [Compound 89] | 50 to 100% |
| CN(c1cnc(C#N)cn1)[C@@H]1CCN(c2ncnc3[nH]ccc23)C1 [Compound 84] | 50 to 100% |
| Cc1nc(N(C)[C@@H]2CCN(c3ncnc4[nH]ccc34)C2)ccc1C#N [Compound 155] | 50 to 100% |
| C#CCN(C1CCCCC1)[C@@H]1CCN(c2ncnc3[nH]ccc23)C1 [Compound 54] | 20 to 50% |
| CN(c1c(F)cc(C#N)cc1F)[C@@H]1CCN(c2ncnc3[nH]ccc23)C1 [Compound 108] | 50 to 100% |
| CN(c1ccc(C(N)=O)cn1)[C@@H]1CCN(c2ncnc3[nH]ccc23)C1 [Compound 169, (R)-6-((1-(7H-pyrrolo[2,3-d]pyrimidin-4-yl)pyrrolidin-3-yl)(methyl)amino)nicotinamide] | 20 to 50% |
| COC[C@H](NC(=O)c1ccc(N(C)[C@@H]2CCN(c3ncnc4[nH]ccc34)C2)nc1)c1ccccc1 [Compound 209] | 50 to 100% |
| CN(C(=O)c1ccc(N(C)[C@@H]2CCN(c3ncnc4[nH]ccc34)C2)nc1)c1ccc(F)cc1 [Compound 178] | 50 to 100% |
| Cc1cc(N(C)[C@@H]2CCN(c3ncnc4[nH]ccc34)C2)nc(Cl)c1C#N [Compound 72] | 50 to 100% |
| CN(c1ccc(S(=O)(=O)NCc2ccc(F)cc2)cn1)[C@@H]1CCN(c2ncnc3[nH]ccc23)C1 [Compound 254] | 50 to 100% |
| CN(C(=O)Nc1ccc(C(F)(F)F)cc1)[C@@H]1CCN(c2ncnc3[nH]ccc23)C1 [Compound 30] | 50 to 100% |
| CN(C(=O)N[C@@H]1c2ccccc2C[C@H]1O)[C@@H]1CCN(c2ncnc3[nH]ccc23)C1 [Compound 29, 1-((R)-1-(7H-pyrrolo[2,3-d]pyrimidin-4-yl)pyrrolidin-3-yl)-3-((1R,2R)-2-hydroxy-2,3-dihydro-1H-inden-1-yl)-1-methylurea] | 50 to 100% |
| CN(c1ccc(S(=O)(=O)NCCO)cn1)[C@@H]1CCN(c2ncnc3[nH]ccc23)C1 [Compound 243] | 50 to 100% |
| CN(c1ccc(S(=O)(=O)NC2c3ccccc3C[C@H]2O)cn1)[C@@H]1CCN(c2ncnc3[nH]ccc23)C1 (some centres unmarked) [Compound 232] | 20 to 50% |
| CN(c1ccc(C#N)c(C#N)c1)[C@@H]1CCN(c2ncnc3[nH]ccc23)C1 [Compound 113] | 20 to 50% |
| CN(c1ncccc1C#N)[C@@H]1CCN(c2ncnc3[nH]ccc23)C1 [Compound 159] | 50 to 100% |
| CN(c1ccc(S(=O)(=O)NC2CCC[C@@H]2O)cn1)[C@@H]1CCN(c2ncnc3[nH]ccc23)C1 (some centres unmarked) [Compound 246] | 50 to 100% |
| CN([C@@H]1CCN(c2ncnc3[nH]ccc23)C1)S(=O)(=O)c1c(F)cccc1F [Compound 43] | 20 to 50% |
| CN(c1ccnc(Cl)n1)[C@@H]1CCN(c2ncnc3[nH]ccc23)C1 [Compound 63, (R)—N-(1-(7H-pyrrolo[2,3-d]pyrimidin-4-yl)pyrrolidin-3-yl)-2-chloro-N-methylpyrimidin-4-amine] | 50 to 100% |
| CN([C@@H]1CCN(c2ncnc3[nH]ccc23)C1)S(=O)(=O)N1CCCC1 [Compound 15] | 50 to 100% |
| CN(c1ccc(C(=O)NC[C@H](O)c2ccccc2)cc1F)[C@@H]1CCN(c2ncnc3[nH]ccc23)C1 [Compound 202] | 50 to 100% |
| CN(c1ccc(C#N)cc1[N+](=O)[O-])[C@@H]1CCN(c2ncnc3[nH]ccc23)C1 [Compound 107] | 50 to 100% |
| C#CCN(c1ccc(C#N)cc1F)[C@@H]1CCN(c2ncnc3[nH]ccc23)C1 [Compound 130] | 20 to 50% |
